≈ marks a conversion by molar mass, not a printed value.
Test system: Escherichia coli
Test: Antibacterial activity against Escherichia coli MG1655 assessed as inhibition of bacterial growth
Type: functional

`COc1ccc(-c2c(-c3ccc(C)s3)[nH]c3[nH]c(=O)[nH]c(=O)c23)cc1` was tested. Which MIC did it give?
Its MIC is 16 µg/mL (≈ 45.3 µM).

From ChEMBL document CHEMBL5375950, “Chemical genetic approaches for the discovery of bacterial cell wall inhibitors” (2023)
